Source: PMC6299481, “Deciphering the Evolution of Cephalosporin Resistance to Ceftolozane-Tazobactam in Pseudomonas aeruginosa” (mBio, 2018)
Where two headings read alike, the source gives them in different places.

Experiments:
[1] = test system: E. coli DH10B pBC SK blaPDC-1; test: MIC, MH agar dilution (CLSI); format: cell-based; conditions: Escherichia coli, β-lactam alone
Method: (§1) Variant genes were synthesized into the pBC SK (-) vector by Celtek Bioscience (Franklin, TN). Mueller-Hinton (MH) agar-dilution MIC measurements were performed against isogenic transformants producing PDC-3 and nine variants of PDC-3 in pBC SK (-) according to the Clinical and Laboratory Standards Institute (CLSI) guidelines as previously described ([39], [48]). Avibactam, LP-06, and S02030 were tested at a constant 4 µg/ml in combination with various concentrations of ceftazidime. Piperacillin-tazobactam was maintained at a ratio of 8 piperacillin to 1 tazobactam. Ceftolozane-tazobactam was maintained at a ratio of 2 ceftolozane to 1 tazobactam. The MICs are reported as the concentrations at which bacterial growth was no longer observed. All MIC measurements were performed at least three times.

[2] = test system: E. coli DH10B pBC SK blaPDC-3 E221A; test: MIC, MH agar dilution (CLSI); format: cell-based; conditions: Escherichia coli; β-lactam alone; E. coli DH10B pBC SK blaPDC-3 E221A (Table 2 prints E221)
Method: as §1

[3] = test system: E. coli DH10B pBC SK blaPDC-3 E221G; test: MIC, MH agar dilution (CLSI); format: cell-based; conditions: Escherichia coli, β-lactam alone
Method: as §1

[4] = test system: E. coli DH10B pBC SK blaPDC-3 G216A; test: MIC, MH agar dilution (CLSI); format: cell-based; conditions: Escherichia coli; β-lactam alone; E. coli DH10B pBC SK blaPDC-3 G216A (Table 2 prints G216)
Method: as §1

[5] = test system: E. coli DH10B pBC SK blaPDC-3 G216R; test: MIC, MH agar dilution (CLSI); format: cell-based; conditions: Escherichia coli, β-lactam alone
Method: as §1

[6] = test system: E. coli DH10B pBC SK blaPDC-3 V213A; test: MIC, MH agar dilution (CLSI); format: cell-based; conditions: Escherichia coli, β-lactam alone
Method: as §1

[7] = test system: E. coli DH10B pBC SK blaPDC-3 V213G; test: MIC, MH agar dilution (CLSI); format: cell-based; conditions: Escherichia coli, β-lactam alone
Method: as §1

[8] = test system: E. coli DH10B pBC SK blaPDC-3 Y223A; test: MIC, MH agar dilution (CLSI); format: cell-based; conditions: Escherichia coli, β-lactam alone
Method: as §1

[9] = test system: E. coli DH10B pBC SK blaPDC-3 Y223H; test: MIC, MH agar dilution (CLSI); format: cell-based; conditions: Escherichia coli, β-lactam alone
Method: as §1

[10] = test system: E. coli DH10B pBC SK blaPDC-3; test: MIC, MH agar dilution (CLSI); format: cell-based; conditions: Escherichia coli
Method: as §1

E. coli DH10B pBC SK = test: MIC, MH agar dilution (CLSI); format: cell-based; conditions: Escherichia coli, DH10BPBCSK, β-lactam alone
Method: as §1

E. coli DH10B = test: MIC, MH agar dilution (CLSI); format: cell-based; conditions: Escherichia coli, β-lactam alone
Method: as §1

P. aeruginosa 18SH = test: MIC, MH agar dilution (CLSI); format: cell-based; conditions: Pseudomonas aeruginosa, β-lactam alone, control strain expressing PDC-3
Method: as §1

P. aeruginosa PAO1 = test: MIC, MH agar dilution (CLSI); format: cell-based; conditions: Pseudomonas aeruginosa; β-lactam alone; P. aeruginosa PAO1, control strain expressing PDC-1
Method: as §1

[11] = test system: E. coli DH10B pBC SK blaPDC-3 E221K; test: MIC, MH agar dilution (CLSI); format: cell-based, Escherichia coli; conditions: for MIC: Escherichia coli; for fold increase in MIC relative to the wild-type strain: E221K variant strain versus PDC-3 strain, E. coli DH10B
Method: as §1

[12] = molecular target: T1, E221K variant of PDC-3 β-lactamase (Pseudomonas aeruginosa, UniProt P24735, E247K/T105A); test: Steady-state hydrolysis kinetics; format: biochemical
T1 construct: produces the corresponding PDC-3 protein without its signal peptide; made in house; host or cells: E. coli Origami 2 DE3, pET24a (+) blaPDC-3-E221K
Method: (§2) Steady-state kinetic and inhibitor parameters were determined by using an Agilent 8453 diode array spectrophotometer at room temperature as previously described ([20], [43], [49]). Each assay was performed in 10 mM phosphate-buffered saline (PBS) at pH 7.4 at room temperature (RT = ∼25°C) in a quartz cuvette with a 1-cm path length. Measurements were obtained using ceftolozane and ceftazidime. The kinetic parameters, Vmax and Km, were obtained with a nonlinear least-squares fit of the data (Henri Michaelis-Menten, equation 1) using Origin 7.5VR (OriginLab, Northampton, MA).(1) v=Vmax [S]/Km+[S]

PDC-3 β-lactamase [13] = molecular target: T2, PDC-3 β-lactamase (Pseudomonas aeruginosa, UniProt P24735, T105A); test: Competitive inhibition assay with nitrocefin as reporter substrate (Ki app); format: biochemical; conditions: for Ki: 150 μM nitrocefin reporter substrate; for fold difference in Ki app between ceftolozane and ceftazidime: ceftolozane Ki app higher than ceftazidime Ki app
T2 construct: produces the corresponding PDC-3 protein without its signal peptide; made in house; host or cells: E. coli Origami 2 DE3, pET24a (+) blaPDC-3
Method: For competitive inhibition assays used to determine Ki app, 150 μM nitrocefin was used as the reporter substrate with increasing concentrations of ceftazidime or ceftolozane. Initial velocities were plotted against concentrations of ceftazidime or ceftolozane. Ki app obs were determined by dividing the slope by the y intercept. Ki app was calculated by correcting Ki app obs for nitrocefin affinity and concentration (equation 3). (3) Ki app=Ki app obs/[1+([NCF]/Km NCF)

[14] = test system: E. coli DH10B strains expressing PDC-3 variants; test: MIC, MH agar dilution (CLSI), variant strains taken together; format: cell-based, Escherichia coli; conditions: for MICs when paired with avibactam: oxyimino cephalosporin paired with avibactam
Method: as §1

PDC-3 β-lactamase [15] = molecular target: T2, PDC-3 β-lactamase; conditions: cited from earlier work; for Km: PDC-3, previously reported value; for kcat: PDC-3, reported value
PDC-3 β-lactamase [16] = molecular target: T2, PDC-3 β-lactamase; test: Steady-state hydrolysis kinetics; format: biochemical; conditions: reporter substrate with PDC-3
Method: as §2

[17] = β-lactam alone, E. coli DH10B pBC SK blaPDC-3, read-out: MIC value
[18] = β-lactam alone, E. coli DH10B pBC SK blaPDC-3 E221K, read-out: MIC value
[19] = read-out: MIC value, β-lactam alone, E. coli DH10B pBC SK blaPDC-3
[20] = substrate hydrolysis by E221K, 10 mM PBS pH 7.4, room temperature

Compound	MIC [1] [µg/mL]	MIC [2] [µg/mL]	MIC [3] [µg/mL]	MIC [4] [µg/mL]	MIC [5] [µg/mL]	MIC [6] [µg/mL]	MIC [7] [µg/mL]	MIC [8] [µg/mL]	MIC [9] [µg/mL]	MIC (E. coli DH10B pBC SK) [µg/mL]	MIC (E. coli DH10B) [µg/mL]	MIC (P. aeruginosa 18SH) [µg/mL]	MIC (P. aeruginosa PAO1) [µg/mL]	MIC [10, 19] [µg/mL]	MIC ([11]; read-out: MIC value) [µg/mL]	also measured
CCN1CCN(C(=O)N[C@@H](C(=O)N[C@@H]2C(=O)N3[C@@H]2SC(C)(C)[C@@H]3C(=O)O)c2ccccc2)C(=O)C1=O [Piperacillin]	16	128	64	64	16	64	64	16	32	2	2	512	4			MIC [10, 17]: 16 µg/mL; MIC [11, 18]: 16 µg/mL
CC(C)(O/N=C(\C(=O)N[C@@H]1C(=O)N2C(C(=O)[O-])=C(C[n+]3ccccc3)CS[C@H]12)c1csc(N)n1)C(=O)O [Ceftazidime]	2	8	32	16	32	32	16	32	16	0.25	0.25	64	1	2	64	fold increase in MIC relative to the wild-type strain [11]: 32 fold; Km [12, 20]: 174 ± 20 µM; Vmax [12, 20]: 0.9 ± 0.1 µM/s; kcat [12, 20]: 9 ± 1 s⁻¹; Ki (PDC-3 β-lactamase [13]): 22 µM; fold difference in Ki app between ceftolozane and ceftazidime (PDC-3 β-lactamase [13]): ~60 fold; MICs when paired with avibactam [14]: ≤ 1 mg/L; Km (PDC-3 β-lactamase [15]; ref 20): 51.7 ± 2.1 µM; Km (PDC-3 β-lactamase [15]; ref 28): 35 µM; kcat (PDC-3 β-lactamase [15]; ref 4): 0.002 s⁻¹; kcat (PDC-3 β-lactamase [15]; ref 28): 0.02 s⁻¹
C[C@]1(Cn2ccnn2)[C@H](C(=O)O)N2C(=O)C[C@H]2S1(=O)=O [tazobactam]																fold attenuation of variant strain MICs compared to single antibiotic ([14]; piperacillin-tazobactam and ceftolozane-tazobactam combinations): 2- to 8 fold
C[C@@H](O)[C@H]1C(=O)N2C(C(=O)O)=C(SCCN=CN)C[C@H]12 [Imipenem]	0.25	0.5	0.5	0.5	0.5	0.5	0.5	0.5	0.5	0.25		2	2	0.25	0.5	
CO/N=C(\C(=O)N[C@@H]1C(=O)N2C(C(=O)[O-])=C(C[N+]3(C)CCCC3)CS[C@H]12)c1csc(N)n1 [Cefepime]	0.125	0.125	0.125	0.125	0.25	0.125	0.125	0.25	0.125	< 0.06	0.125	128	4	≤ 0.06	0.25	
CO/N=C(\C(=O)N[C@@H]1C(=O)N2C(C(=O)O)=C(COC(C)=O)CS[C@H]12)c1csc(N)n1 [Cefotaxime]	8	16	8	8	16	16	16	16	8	< 0.06	< 0.06	> 256	16	8	4	
CC1(C)S[C@@H]2[C@H](NC(=O)[C@H](N)c3ccccc3)C(=O)N2[C@H]1C(=O)O [Ampicillin]	256	1020	512	1020	1020	1020	1020	256	512	4	4	4100	2050			MIC [10, 17]: 256 µg/mL; MIC [11, 18]: 256 µg/mL
O=C(Cc1cccs1)N[C@@H]1C(=O)N2C(C(=O)O)=C(/C=C/c3ccc([N+](=O)[O-])cc3[N+](=O)[O-])CS[C@H]12 [nitrocefin]																Km ([12]; reporter substrate with E221K): 17 ± 3 µM; Km (PDC-3 β-lactamase [16]): 20 ± 2 µM
Cn1c(N)c(NC(=O)NCCN)c[n+]1CC1=C(C(=O)O)N2C(=O)[C@@H](NC(=O)/C(=N\OC(C)(C)C(=O)[O-])c3nsc(N)n3)[C@H]2SC1 [Ceftolozane]	0.5	2	16	2	8	4	4	32	8	0.5	0.5	8	0.5	0.5	64	MIC ([10]; read-out: ceftolozane MIC, PDC-3 strain, Table 2): 0.5 µM; fold increase in MIC relative to the wild-type strain [11]: 128 fold; MIC ([11]; read-out: ceftolozane MIC): 64 µM; Km [12, 20]: 341 ± 64 µM; Vmax [12, 20]: 1.0 ± 0.1 µM/s; kcat [12, 20]: 10 ± 1 s⁻¹; Ki (PDC-3 β-lactamase [13]): 1300 µM; fold difference in Ki app between ceftolozane and ceftazidime (PDC-3 β-lactamase [13]): 60 fold; MICs when paired with avibactam [14]: ≤ 1 mg/L
C[C@H]1[C@H](NC(=O)/C(=N\OC(C)(C)C(=O)O)c2csc(N)n2)C(=O)N1S(=O)(=O)O [Aztreonam]	0.5	4	4	8	16	8	8	4	4	0.125	0.125	128	4	1	8	
